“Also recorded” adds a separate entry of the source. Values belong to the molecule of their own block, whether it stands above or below them.
Tests used:
[1] = patients with refractory hematologic malignancies; cited from earlier work
IL1B = test: qRT-PCR of IL1B in HEK T/tH KRAS^G12V cells; assay type: cell-based, human; settings: 16 hours
Description: Total RNA was isolated using RNAzol RT (Sigma), cDNA was generated using High Capacity cDNA reverse transcription kit (Thermo Fisher Scientific, 4368814) and qPCR was performed using SYBR-Green reagent (Applied Biosystems, cat #4309155). All experiments were performed in biological duplicates or triplicates (n=2,3).

[2] = system: serum-response element (SRE); test: Serum-response element (SRE) luciferase reporter assay; assay type: cell-based, human; settings: for SRE reporter activity (MAPK cascades): KRAS-mutant HPAC, MIA Paca-2, and Pa01C cells
Description: (§1) Cells stably expressing plasmid encoding serum-response-element (SRE) or NFKB promoter driven Firefly luciferase and constitutive Renilla luciferase were seeded at equal density per well and treatment was initiated the next day for 16-24 duration. Alternatively, 293T reporter cells were transfected in duplicate or triplicate with 1 μg of appropriate plasmid DNA. Medium was replaced 16-18 hours later and at 48 hours post-transfection reporter activity was measured using Dual-Glo® Luciferase Assay System. Data was acquired using SpectraMax i3Microplate Reader and analysis was performed by calculating ratio of firefly:renilla. Values were normalized to control and graphed using GraphPad Prism v7/8 software.

Hs695T cells [3] = test: Drug response and viability assay, Hs695T; assay type: cell-based, human
Description: Cells were seeded at 1500-2500 cells per well in triplicates, in 96 well format. Next day, appropriate inhibitor was added in serial dilution from 1.00×102 μM or indicated single doses. Vehicle (DMSO) was added to match volume of inhibitor used for highest concentration. After 96-120 hours, 5× AlamarBlue® reagent (resazurin sodium salt, Sigma) was added to wells and incubated for 2-4 hours. Fluorescence at 585 nm (excitation 555 nm) was measured by SpectraMax i3 Microplate Reader. Raw values were normalized to vehicle, analyzed and graphed using GraphPad Prism v7/8 software.

p-MEK, p-ERK, and p-RSK = test: Immunoblots of MAPK pathway markers in human cell lines; assay type: cell-based; settings: for p-MEK and p-ERK levels: serum-free
Description: (§2) Standard immunoblotting procedure was followed. Cells were washed twice with ice-cold 1×PBS and lysed with ice-cold triton-X lysis buffer (25 mM Tris, pH 7.4, 150 mM NaCl, 5 mM EDTA, 1% Triton-X) containing 1× protease (10 μg mL-1 leupeptin, 700 ng mL-1 pepstatin, 170 ng mL-1 aprotinin, 1 mM PMSF) and phosphatase (10 mM NaF, 1 mM Na3VO4, 1 mM Na4P2O^7, 5 mM Na b-glycerophosphate) inhibitors. Lysates were quantified by Bradford assay (Thermo Scientific), normalized for concentration, and reduced and denatured with 6×SDS sample buffer followed by boiling for 5 minutes. 20-40 μg of protein per sample was resolved by SDS-PAGE, blotted on PVDF membrane and probed with primary antibodies (Cell Signaling Technologies: p-ERK1/2 (#4370), p-MEK1/2 (#9154), ERK1/2 (#4695), MEK1/2 (#8727), p-p105 (#4806), NFS2KB1 p105/p50 (#3035), p-IRAK4 (#11927), IRAK4 (#4363), ubiquitin (#43124), anti-HA (#3724), p-p90RSK (#11989), RSK1/2/3 (#9355), p-TPL2 (#4491), PARP (#9532), p-B-RAF S445 (#2696), BRAF (#9433S). Santa Cruz Biotechnology: GAPDH (#sc-32233), p-p65 S536 (#sc101752). Thermo Fisher Scientific: p-55 TPL2 (#PA5-36635). EMD Millipore: IRAK4 (#07-418). R&D systems: TPL2/MAP3K8 (#MAB4586). Novus Biologicals: anti-AU1 (#NB600-453). Abcam: p-p65 S276 (#ab194726)). Membranes were incubated with appropriate HRP-conjugated secondary antibodies (anti-mouse or anti-rabbit, (1:5000 dilution), Jackson Laboratory) and imaged using chemiluminescent substrate. Additional steps for immunoprecipitation include incubation of soluble fraction lysate with anti-HA magnetic beads (Thermo Scientific cat #88837) overnight at 4° C., washing, and elution using 1×SDS sample buffer and boiling as mentioned in manufacturer's protocol.

p-p105, p-p65 = test: Immunoblots of NF-κB markers in PDAC cells; assay type: cell-based, human
Description: as §2

[4] = system: TLR9 and p-IRAK4 interaction; test: Proximity ligation assay (PLA); assay type: cell-based, human; settings: 3 PDAC lines; 10 μM, 16 hours
Description: PLA was performed using Duolink® in situ Red Starter Kit Mouse/Rabbit (DUO92101, Sigma) per manufacturer's protocol. Briefly, cells were seeded on cover slips in 6 well plate at ˜50% confluency per well. Next day cells were treated with SN-38 (10 μM) and 16 hours later PLA was performed using p-IRAK4 (ABNOVA) and TLR9 (CST) primary antibodies. Stained cells were imaged using Nikon C2+ fluorescent microscope paired with NIS-Element software. Number of puncta per field was quantitated for six 400× fields per condition using Find Maxima tool in ImageJ software. Data was exported and graphed in GraphPad Prism v8.

[5] = system: HPNE-KRAS^G12D cells, HEKT/tH-KRAS^G12V cells, conventional PDAC lines, and PDCLs; test: Anchorage independent soft agar growth assay, human KRAS-mutant lines; assay type: cell-based; settings: HPNE-KRAS^G12D, HEKT/tH-KRAS^G12V, conventional PDAC lines, PDCLs
Description: Cells were seeded at 5000-15000 cells in 0.3% noble agar-DMEM suspension per well, in triplicate, in 24 well plate. For drug treatment, compound was added to cell suspension at 1× concentration. Seeded cells were fed with fresh 0.6% agar-DMEM mix once every 7-12 days. […] After 3-6 weeks, colonies were counted under microscope and imaged. Colony count was normalized to control and graphed in GraphPad Prism v7/8.

NF-κB reporter activity = test: NF-κB luciferase reporter assay; assay type: cell-based, human; settings: KRAS-mutant PDAC cells (PANC-1); serial dilutions from 20 μM; 18 hours
Description: as §1

Hs695T cells [6] = test: Cell proliferation assay, Hs695T; assay type: cell-based, human
Description: (§3) Cells were seeded in triplicate or quadruplicate at indicated density per well. When applicable, appropriate drug compound was added to cells the next day. Viable cells were counted using trypan blue dye exclusion and BioRad TC20 Automated Cell Counter at each time point.

IGROV1 cells [7] = test: Cell proliferation assay, IGROV1; assay type: cell-based, human
Description: as §3

KRAS mutant cell lines = test: Clonogenic 2D assay, KRAS-mutant and PDAC lines; assay type: cell-based, human; settings: HPNE-KRAS^G12D, HEKT/tH-KRAS^G12V, conventional PDAC lines, PDCLs
Description: (§4) Cells were seeded at 500-1000 cells per well (6 well plate format) or 200-1000 cells per well (12 well format) in 10% serum media. For drug treatment, compound was added at time of seeding at indicated concentration. Media was replenished as needed over course of incubation. After 3-5 weeks, colonies were fixed with 4% formaldehyde, stained with 0.5% crystal violet and scanned using document scanner. Images were quantified using particle analyzer on ImageJ software and values were normalized to vehicle.

IGROV1 cells [8] = test: Clonogenic 2D assay, IGROV1; assay type: cell-based, human
Description: as §4

orthotopic KI tumors = test: Orthotopic implantation of murine KI PDAC cells; assay type: in vivo; settings: KI tumors in syngeneic FVB/NJ mice; 30 mg/kg, 14 days
Description: For subcutaneous xenograft, approximately 5 million cells per flank were implanted into 6-week-old athymic nude mice (NU/J, Jackson Laboratory). When applicable, treatment with drug compound was initiated when tumors were palpable. FIRINOX (25 mg/kg 5-FU, 17.5 mg/kg irinotecan, and 3.35 mg/kg oxaliplatin) was administered via intraperitoneal injection weekly in 50 μL PBS. TPL2i was administered by intraperitoneal injection at 10 mg/kg in 40 μL DMSO, 5 days per week. Mice in the control group were treated with vehicle. Tumor volume was calculated as width^2×(length×0.5). Tumors were measured and mice were weighed 3 days per week. For orthotopic implantation, murine KI PDAC cells were injected into the pancreas of 7-week-old female FVB/NJ mice (Jackson Laboratory), as previously described (see e.g., Kim et al. (2009) Nat Protoc. 4 (11): 1670-1680). Six days after implantation, treatment with vehicle, FIRINOX (same dose as above), or TPL2i (30 mg/kg) was initiated for 14 days, at which time all mice were sacrificed. In vivo tumor progression was monitored using ultrasound (VScan, GE Healthcare) with final day representative tumor images shown.

[9] = system: poly (ADP-ribose) polymerase (PARP); test: Immunoblot of PARP cleavage; assay type: cell-based, human; settings: PDAC lines; cotreatment with SN-38, 16 hours
Description: as §2, with “Membranes were incubated with appropriate HRP-conjugated secondary antibodies (anti-mouse or anti-rabbit, (1:5000 dilution), Jackson Laboratory) and imaged using chemiluminescent substrate. Additional steps for immunoprecipitation include incubation of soluble fraction lysate with anti-HA magnetic beads (Thermo Scientific cat #88837) overnight at 4° C., washing, and elution using 1×SDS sample buffer and boiling as mentioned in manufacturer's protocol.” left out

[10] = system: LPS-induced TNF-α production; settings: human monocytes; cited from earlier work
[11] = HPAC cells, 16 hours, 10% serum

Molecule: Cc1cc(-c2nc(C(=O)Nc3cc4oc(N5CCOCC5)nc4nc3N3CC[C@@H](O)C3)co2)ccn1 [CA-4948, N-[5-[(3R)-3-hydroxypyrrolidin-1-yl]-2-morpholin-4-yl-[1,3]oxazolo[4,5-b]pyridin-6-yl]-2-(2-methylpyridin-4-yl)-1,3-oxazole-4-carboxamide]
patients developing grade 1-2 neutropenia [1]: 23%
tolerability in clinical trial [1]: rather well tolerated

Molecule: CS(=O)(=O)N1CCN(Cc2cc3nc(-c4cccc5[nH]ncc45)nc(N4CCOCC4)c3s2)CC1 [GDC-0941]
IL-1B production (IL1B expression by qRT-PCR) (IL1B): no effect

Molecule: O=C(Nc1cc(C(F)(F)F)cc(C(F)(F)F)c1)c1cc(Cl)ccc1O [IMD-0354]
SRE-driven luciferase reporter activity ([2]; HPAC cells): dose-dependent suppression

Molecule: CCCS(=O)(=O)Nc1ccc(F)c(C(=O)c2c[nH]c3ncc(-c4ccc(Cl)cc4)cc23)c1F [PLX4032]
viability (Hs695T cells [3]): modest growth suppressive effect

SRE reporter activity (MAPK cascades) [2]: paradoxically hyperactivate
Molecule: CCCS(=O)(=O)Nc1ccc(F)c(C(=O)c2c[nH]c3ncc(Cl)cc23)c1F [PLX-4720]

Molecule: CCc1c2c(nc3ccc(O)cc13)-c1cc3c(c(=O)n1C2)COC(=O)[C@]3(O)CC [SN-38]
induction of p-ERK, p-MEK, p-RSK, p-TPL2 and p-IRAK4 (p-MEK, p-ERK, and p-RSK; multiple PDAC lines, 10 μM, 16 hours, compared with 4 other chemotherapeutic agents): most potent in inducing
NF-κB induction (p-p105) (p-p105, p-p65; PDAC lines after chemotherapy): also induced
TLR9 and p-IRAK4 interaction [4]: markedly increased

Gemcitabine-induced SRE activity [2, 11]: suppressible
SRE reporter activity (MAPK cascades) [2]: dose-dependently suppressed
NF-κB reporter activity (NF-κB reporter activity): dose-dependently suppressed
PARP cleavage [9]: increased
Molecule: N#Cc1cnc2cnc(NCc3cccnc3)cc2c1Nc1ccc(F)c(Cl)c1 [TPL2i, 4-[(3-Chloro-4-fluorophenyl)amino]-6-[(3-pyridinylmethyl)amino]-1,7-naphthyridine-3-carbonitrile]
3-dimensional (3D) AI growth [5]: dose-dependently suppressed
p-MEK and p-ERK levels (p-MEK, p-ERK, and p-RSK; 293T cells expressing KRAS^G12V, 24 hours): dose-dependently suppressed
p-MEK and p-ERK (p-MEK, p-ERK, and p-RSK; 293T cells transfected with oncogenic BRAF^V600E, 24 hours): neither TPL2i nor IRAK4i suppressed
p-MEK and p-ERK / MAPK activity (p-MEK, p-ERK, and p-RSK; BxPc-3 PDAC line (BRAF mutation, WT KRAS)): neither TPL2i nor IRAK4i suppressed and not
conditioned medium-induced p-TPL2, p-IRAK4, p-MEK, and p-ERK levels (p-MEK, p-ERK, and p-RSK; HEK T/tH cells with CM from HEK-T/tH KRAS^G12V cells): completely blocked
Gemcitabine-induced p-MEK and p-ERK levels (p-MEK, p-ERK, and p-RSK; [11]): suppressible
p-ERK and p-MEK / MAPK activity (p-MEK, p-ERK, and p-RSK; Hs695T cells (BRAF^V600E, MAP3K8^E188K), 24 hours, 10% serum): significantly suppressed
p-MEK, p-ERK, and p-RSK / MAPK activity (p-MEK, p-ERK, and p-RSK; IGROV1 (MAP3K8^R442H), 1 μM, 2 hours): completely blocked; also recorded: completely abolished
SN-38-induced p-MEK, p-ERK, and p-RSK (p-MEK, p-ERK, and p-RSK; PDAC lines, cotreatment, 16 hours): significantly attenuated
p-BRAF (p-MEK, p-ERK, and p-RSK; Pa01C cells, incremental doses): without affecting
p-MEK and p-ERK (p-MEK, p-ERK, and p-RSK; Pa01C cells, incremental doses): dose-dependently blocked
p-MEK and p-ERK levels (p-MEK, p-ERK, and p-RSK; multiple KRAS-mutant PDAC lines, 36 hours): dose-dependently suppressed
p-p65 at S276 (p-p105, p-p65; 3 out of 4 cell lines): potently suppressed
p50 processing (p-p105, p-p65; PDAC cell lines): did not lead to increased p50 processing
p-p65 at S536 (p-p105, p-p65; PDAC cell lines): not
p-p105 (p-p105, p-p65; PDAC cell lines, TPL2 inhibition): dose-dependently suppressed
p-p105 in SN-38-treated cells (p-p105, p-p65; Pa01C cells): additionally suppressed
viability (Hs695T cells [3]): suppressed
in vitro proliferation (Hs695T cells [6]): significantly suppressed
proliferation (IGROV1 cells [7]): significantly decreased
2D clonogenic growth (KRAS mutant cell lines): dose-dependently suppressed
colony forming ability (IGROV1 cells [8]): significantly decreased
growth of orthotopic tumors (orthotopic KI tumors): effective in significantly suppressing growth
LPS-induced TNF-α production [10]: can suppress

SRE reporter activity (MAPK cascades) [2]: paradoxically hyperactivate
Molecule: CC(C)(C)c1nc(-c2cccc(NS(=O)(=O)c3c(F)cccc3F)c2F)c(-c2ccnc(N)n2)s1 [dabrafenib]

Molecule: CC(C)Nc1cc(-c2c[nH]c(C(=O)N[C@H](CO)c3cccc(Cl)c3)c2)c(Cl)cn1 [ulixertinib]
IL-1B production (IL1B expression by qRT-PCR) (IL1B): significantly abrogated

Molecule: recombinant hIL-1B: recombinant human IL-1B
p-IRAK4, p-TPL2, p-MEK, p-ERK, and p-RSK (p-MEK, p-ERK, and p-RSK; HEK T/H, HPAC, and Pa01C cells, 100 ng/ml): upregulated

— patent US12173039B1, “TPL2 inhibiting agents, uses thereof, and detection of TPL2” (Washington University, priority 2021, dated 2024)
